Laboratory results as given in patent US8809372B2, “Pyridine derivatives” (Endo Pharmaceuticals, Inc., priority 2011, dated 2014).

Assays:
[1] = target: T1, human CYP17 in LNCap-CYP17 cells (Homo sapiens, UniProt P05093); assay: Cell-based human CYP17 inhibition assay, LNCap-CYP17 cells; settings: 16 hours
T1 construct: expressed in transfected cells
T1 sequence (P05093 1-508): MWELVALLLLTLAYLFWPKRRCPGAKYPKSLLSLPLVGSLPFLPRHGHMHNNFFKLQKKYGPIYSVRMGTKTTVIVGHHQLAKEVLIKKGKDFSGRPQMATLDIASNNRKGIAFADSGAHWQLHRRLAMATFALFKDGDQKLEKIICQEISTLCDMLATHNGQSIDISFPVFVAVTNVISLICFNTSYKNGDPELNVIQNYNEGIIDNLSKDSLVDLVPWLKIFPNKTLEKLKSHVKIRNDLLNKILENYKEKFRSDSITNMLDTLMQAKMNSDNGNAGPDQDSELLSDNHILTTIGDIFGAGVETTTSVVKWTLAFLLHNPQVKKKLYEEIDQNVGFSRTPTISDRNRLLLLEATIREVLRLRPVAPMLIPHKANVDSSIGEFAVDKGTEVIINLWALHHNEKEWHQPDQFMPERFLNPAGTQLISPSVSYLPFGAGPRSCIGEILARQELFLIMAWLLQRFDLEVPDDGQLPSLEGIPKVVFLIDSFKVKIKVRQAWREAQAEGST
Procedure: Cell-Based Human CYP17 Inhibition Assay
1. H295R Adrenocortical Carcinoma Cells and Growth Media: The media for the H295R Adrenocortical carcinoma cells [NCI-H295A, ATCC Number CRL-2128, American Type Culture Collection, Manassas, Va., US] (500 mL) was a DMEM:F12 Mix 1:1 with 5% (2 mL) BD Nu Serum; 1% (5 mL) ITS+Premix [BD Biosciences] and 1% Penstrep. 2. LNCap-CYP17 Cells and Growth Media: Full length hCYP17a1 gene (NCBI Reference Sequence: NM_000102.3) was cloned in pcDNA3.1(+) vector between HindIII and XhoI site. The pcDNA3.1(+) vector contains the Neomycin resistance gene and was used for selection of stable cell line. The hCYP17a1 containing pcDNA3.1(+) was transfected into LNCap cells to create the LNCap-CYP17 cell line. The media for the LNCaP-CYP17 cells was RPMI 1640, 10% FBS, 1% PenStrep, Geneticin 400 μg/mL.
The H295R cells or LNCaP-hCYP17 cells were subcultured and 30,000 cells per well were seeded in a poly-d lysine plate and incubated overnight at 37° C. The next day the media was removed and 200 μL of fresh media with ^3H3-17α-hydroxy-pregnenolone (1:1000) was added. 50 μL of serially diluted compounds from a 5× plate (5 times the final desired concentration) was added. […]
The plates were incubated overnight (16 hours) at 37° C. […] Following the incubation for 30 minutes, readings for the radiotracer were taken using a Microbeta® trilux.

[2] = test system: prostate and seminal vesicle weights; assay: In vivo reduction of prostate and seminal vesicle weights; parameters: species or system rat; settings: male rats
Procedure: In vivo Reduction of Prostate and Seminal Vesicle Weights Male rats aged 8 to 10 weeks old (5 animals per group) were dosed orally with compounds once or twice a day at 12-hour intervals for 14 days. On day 14 the animals were euthanized and organs were surgically removed for wet weight determination including the prostate, seminal vesicles and testes.

[3] = 30 mg/kg orally once a day for 14 days
[4] = 30 mg/kg orally twice a day for 14 days

COc1ccc(-c2ccc(C(C)(O)c3ccncc3)nc2)cc1 (racemic) [Example 1, 1-(5-(4-Methoxyphenyl)pyridin-2-yl)-1-(pyridin-4-yl)ethanol]
IC50 [1]: 0.201 to 10 µM

CC(O)(c1ccncc1)c1cnc(-c2ccc(F)cc2)s1 (racemic) [Example 7, 1-(2-(4-Fluorophenyl)thiazol-5-yl)-1-(pyridin-4-yl)ethanol]
melting point: 229 to 232 °C | reduction of prostate weight [2, 3]: about 50% | reduction of seminal vesicle weight [2, 3]: about 60%

CC(O)(c1ccncc1)c1nc(-c2ccc(F)cc2)no1 (single isomer, unassigned; (+)) [Example 36, (+)-1-(3-(4-fluoro-phenyl)-1,2,4-oxadiazol-5-yl)-1-(pyridin-4-yl)ethanol]
reduction of prostate weight [2, 4]: about 50%

Cn1cc(-c2ccc(C(C)(O)c3ccncc3)s2)ccc1=O (single isomer, unassigned; (-)) [Example 17, (−)-5-(5-(1-hydroxy-1-(pyridin-4-yl)ethyl)thiophen-2-yl)-1-methylpyridin-2(1H)-one]
reduction of prostate weight [2, 4]: about 50%

CC(O)(c1ccncc1)c1nc(-c2ccc(F)cc2)no1 (stereo not shown) [Example 34, 1-(3-(4-Fluorophenyl)-1,2,4-oxadiazol-5-yl)-1-(pyridin-4-yl)ethanol]
reduction of prostate weight [2, 4]: about 50%
